Experiments:
purpose-bred beagles = assay: 24 h urine collection (glucose excretion, volume, electrolytes) in dogs; type: in vivo, dog; settings: for 24 h urine Cl^− / 24 h urine K^+ / 24 h urine Na^+ / 24 h urine Volume: mean ± SD, n=4
Description: Groups of four purpose-bred beagles per cohort were administered ascending doses of bexagliflozin in the form of a proline co-crystal consisting of two moles of L-proline for every mole of bexagliflozin. The co-crystal was dissolved in 10% PEG400 and administered by oral gavage to dogs that had been fasted overnight. Control dogs were administered 10% PEG400. One hour after dosing, glucose solution (2 g kg^−1, 5 ml kg^−1) was administered by gavage. Serum glucose concentrations were quantitated by an automated clinical chemistry analyzer for samples collected before dosing, before glucose challenge, and 15, 30, 60, and 120 min after glucose challenge. Urine was collected from 0 to 4 h, 4 to 8 h and 8 to 24 h after dosing for electrolyte analyses (Na^+, K^+, Cl^− and Ca^2+) and glucose measurement. Whole blood samples of approximately 500 μL were collected from the cephalic vein 0, 0.25, 0.5, 1, 2, 4, 8, 12 and 24 h after dosing for pharmacokinetic analysis.
Urine output increased in the treatment group, consistent with an osmotic diuresis or with a role for the inhibited transporters in water reuptake in the proximal tubule.

cats with diabetes = assay: Measures of renal health (creatinine, BUN, SDMA) in diabetic cats managed with bexagliflozin, MMRM analysis; type: in vivo, cat
Excerpt: Venous blood specimens were collected at regular intervals and analyzed for standard parameters of interest for routine clinical care, including creatinine, BUN and SDMA. Owners were advised to provide a diet low in carbohydrates as an element of the disease management plan. An important consequence of the shift to a low carbohydrate diet is the increase in dietary protein (contributing to BUN) and specifically dietary muscle-derived protein (contributing to creatinine).
FIG. 6, FIG. 7 and FIG. 8 show the measured concentrations of creatinine, BUN and SDMA in cats as a function of time in the study. […] Considerable variation can be seen in the individual values.
To identify treatment-related trends, the data for each of the three analytes were analyzed by a mixed model repeated measures (MMRM) analysis of covariance, with cat as a categorical (class) effect and day of measurement and initial value at the baseline visit as continuous covariates. Because the diets of many of the animals were changed at the baseline visit, and the effects of diet on creatinine and BUN are generally thought to be prompt, the analysis considered only changes in analyte values over the non-baseline visit days.

human SGLT2 = target: T1, human SGLT2 (Homo sapiens, UniProt P31639); assay: Inhibition of human SGLT2
T1 sequence (P31639 1-672): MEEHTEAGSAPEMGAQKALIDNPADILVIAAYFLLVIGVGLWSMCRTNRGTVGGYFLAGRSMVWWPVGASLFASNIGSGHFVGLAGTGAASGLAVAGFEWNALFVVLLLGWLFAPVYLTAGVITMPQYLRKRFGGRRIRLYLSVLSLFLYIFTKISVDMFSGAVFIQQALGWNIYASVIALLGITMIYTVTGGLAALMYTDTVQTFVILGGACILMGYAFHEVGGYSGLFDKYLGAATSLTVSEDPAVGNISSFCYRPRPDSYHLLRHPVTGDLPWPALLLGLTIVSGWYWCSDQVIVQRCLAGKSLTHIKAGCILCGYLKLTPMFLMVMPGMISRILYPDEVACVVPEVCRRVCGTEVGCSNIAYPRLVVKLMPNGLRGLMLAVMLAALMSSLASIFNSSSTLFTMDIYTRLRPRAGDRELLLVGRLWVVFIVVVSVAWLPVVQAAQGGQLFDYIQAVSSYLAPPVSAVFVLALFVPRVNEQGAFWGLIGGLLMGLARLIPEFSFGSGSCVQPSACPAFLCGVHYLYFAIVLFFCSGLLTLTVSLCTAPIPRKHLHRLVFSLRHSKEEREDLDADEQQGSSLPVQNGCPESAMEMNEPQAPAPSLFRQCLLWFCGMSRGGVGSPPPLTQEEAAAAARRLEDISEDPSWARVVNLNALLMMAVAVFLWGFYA

SMILES: OC[C@H]1O[C@@H](c2ccc(Cl)c(Cc3ccc(OCCOC4CC4)cc3)c2)[C@H](O)[C@@H](O)[C@@H]1O [Bexagliflozin, (2S,3R,4R,5 S,6R)-2-(4-chloro-3-(4-(2-cyclopropoxyethoxy)benzyl)phenyl)-6-(hydroxymethyl)tetrahydro-2H-pyran-3,4,5-triol]
- 24 h urine Cl^− (purpose-bred beagles; dogs, 0.02 mg kg^−1 oral): 307.4 ± 87.7 mg
- 24 h urine K^+ (purpose-bred beagles; dogs, 0.02 mg kg^−1 oral): 426.2 ± 62.1 mg
- 24 h urine Na^+ (purpose-bred beagles; dogs, 0.02 mg kg^−1 oral): 178.7 ± 16.7 mg
- 24 h urine Volume (purpose-bred beagles; dogs, 0.02 mg kg^−1 oral): 118.0 ± 30.8 mL
- 24 h urine Cl^− (purpose-bred beagles; dogs, 0.067 mg kg^−1 oral): 403.4 ± 111.4 mg
- 24 h urine K^+ (purpose-bred beagles; dogs, 0.067 mg kg^−1 oral): 476.8 ± 96.5 mg
- 24 h urine Na^+ (purpose-bred beagles; dogs, 0.067 mg kg^−1 oral): 220.9 ± 53.9 mg
- 24 h urine Volume (purpose-bred beagles; dogs, 0.067 mg kg^−1 oral): 153.1 ± 44.5 mL
- 24 h urine Cl^− (purpose-bred beagles; dogs, 0.20 mg kg^−1 oral): 526.5 ± 127.8 mg
- 24 h urine K^+ (purpose-bred beagles; dogs, 0.20 mg kg^−1 oral): 558.8 ± 118.2 mg
- 24 h urine Na^+ (purpose-bred beagles; dogs, 0.20 mg kg^−1 oral): 275.7 ± 69.5 mg
- 24 h urine Volume (purpose-bred beagles; dogs, 0.20 mg kg^−1 oral): 214.1 ± 53.5 mL
- 24 h urine Cl^− (purpose-bred beagles; dogs, 0.67 mg kg^−1 oral): 573.9 ± 166.5 mg
- 24 h urine K^+ (purpose-bred beagles; dogs, 0.67 mg kg^−1 oral): 587.7 ± 113.5 mg
- 24 h urine Na^+ (purpose-bred beagles; dogs, 0.67 mg kg^−1 oral): 300.2 ± 66.4 mg
- 24 h urine Volume (purpose-bred beagles; dogs, 0.67 mg kg^−1 oral): 225.0 ± 66.9 mL
- 24 h urine Cl^− (purpose-bred beagles; dogs, 2.0 mg kg^−1 oral): 595.8 ± 80.6 mg
- 24 h urine K^+ (purpose-bred beagles; dogs, 2.0 mg kg^−1 oral): 599.7 ± 93.5 mg
- 24 h urine Na^+ (purpose-bred beagles; dogs, 2.0 mg kg^−1 oral): 313.1 ± 35.1 mg
- 24 h urine Volume (purpose-bred beagles; dogs, 2.0 mg kg^−1 oral): 247.7 ± 35.2 mL
- % of the maximum pharmacological effect (purpose-bred beagles; dogs, approximately 1 mg kg^−1 once daily): approximately 90%
- maximum urinary glucose excretion per body mass (purpose-bred beagles; dogs, average mass 5.84 kg): 4.23 g glucose per kg of body mass
- % of the maximum pharmacodynamic effect (purpose-bred beagles; dogs, dose 50 μg kg^−1, based on results in beagle dogs): 30%
- % of the maximum pharmacodynamic effect (purpose-bred beagles; dogs, dose 100 μg kg^−1): 46%
- % of the maximum pharmacodynamic effect (purpose-bred beagles; dogs, dose 200 μg kg^−1): 63%
- % of the maximum pharmacodynamic effect (purpose-bred beagles; dogs, dose 400 μg kg^−1): 77%
- % of the maximum pharmacodynamic effect (purpose-bred beagles; dogs, dose 800 μg kg^−1): 87%
- % of the maximum pharmacodynamic effect (purpose-bred beagles; dogs, dose 1600 μg kg^−1): 93%
- % of the maximum pharmacodynamic effect (purpose-bred beagles; dogs, dose 3200 μg kg^−1): 96%
- % of the maximum pharmacodynamic effect (purpose-bred beagles; dogs, eighth value, no matching dose printed): 98%
- Emax for urinary glucose excretion (purpose-bred beagles; dogs, simple logistic model fit): 24.69 g of glucose in 24 h
- ED50 for 24 h urinary glucose excretion (purpose-bred beagles; dogs, simple logistic model fit, doses 0.02 to 2.0 mg kg^−1): 0.116 mg/kg
- potency by ED50 in dogs relative to cats (purpose-bred beagles; urinary glucose excretion ED50, dogs vs cats): approximately 4 times
- model-adjusted population mean BUN concentration (cats with diabetes; diabetic cats on bexagliflozin): 33.82 mg/dL
- model-adjusted population mean SDMA concentration (cats with diabetes; diabetic cats on bexagliflozin): 19.10 µg/dL
- model-adjusted population mean creatinine concentration (cats with diabetes; diabetic cats on bexagliflozin, non-baseline visits): 1.367 mg/dL
- estimated coefficient for day of measurement, creatinine (cats with diabetes; diabetic cats, p<0.0001): 0.000928
- estimated coefficient for day of measurement, BUN (cats with diabetes; diabetic cats, p=0.0172): −0.01346
- estimated coefficient for day of measurement, SDMA (cats with diabetes; diabetic cats, p=0.5338, not significant): −0.0021
- inhibition of human SGLT2 (in words) (human SGLT2): highly effective and specific inhibitor

Reference: US20230000816A1, “SODIUM-GLUCOSE LINKED TRANSPORTER INHIBITORS FOR THE MANAGEMENT OF CHRONIC KIDNEY DISEASE, HYPERTENSION, AND HEART FAILURE IN COMPANION ANIMALS” (INCREVET, INC., priority 2019, published 2023)
